Reference: patent publication US8993603B2, “Pharmaceutical composition and method using antifungal agent in combination” (Toyama Chemical Co., Ltd., priority 2005, dated 2015)

Key:
[1] = tested on: Aspergillus fumigatus TIMM0063; assay: Mouse systemic infection model using Aspergillus fumigatus; format: in vivo; conditions: ICR mice, 15 days after infection, test compound 0.1 mg/kg s.c., once a day, 7 times
Experimental: In vivo activity was evaluated employing a mouse systemic infection model using Aspergillus fumigatus.
As for the inoculum, mice (four-week old (at infection) male ICR mice, 10 mice per group) were intraperitoneally administered with cyclophosphamide 4 days prior to infection (200 mg/kg) and the day after infection (100 mg/kg). A conidium suspension of Aspergillus fumigatus TIMM0063 was diluted with sterile physiological saline solution containing 0.05% Tween 80 (manufactured by Difco Laboratories) to prepare an inoculum. The mice were intravenously inoculated in their tails with 0.2 mL of the inoculum to induce infection (approximately 4×10^4 CFU/mouse).
(§1) The test compound was dissolved in a small amount of 0.1 mol/L hydrochloric acid, and the resultant solution was diluted with sterile physiological saline solution.
Voriconazole was dissolved in 50 mg/mL aqueous sulfobutyl ether β-cyclodextrin sodium (SIDIX) solution.
Flucytosine was suspended in 0.5% methyl cellulose solution.
(§2) The test compound (0.1 mg/kg) and voriconazole (5 mg/kg) were subcutaneously administered and flucytosine (50 mg/kg) was orally administered 2 hours after infection and then once a day for 6 days for a total of 7 times. The test was carried out for the case where each of the agents was administered singly and in combination by administering each of the agents immediately after the test compound had been administered. Efficacy in the susceptibility test was evaluated by the survival rate 15 days after infection.

[2] = tested on: Cryptococcus neoformans ATCC90112; assay: Mouse systemic infection model using Cryptococcus neoformans; format: in vivo; conditions: ICR mice, 22 days after infection, test compound 0.125 mg/kg s.c., once a day, 7 times
Experimental: In vivo activity was evaluated employing a mouse systemic infection model using Cryptococcus neoformans.
Mice (four-week old (at infection) male ICR mice, 10 mice per group) were intraperitoneally administered with cyclophosphamide 4 days prior to infection (200 mg/kg) and the day after infection (100 mg/kg). An inoculum was prepared by suspending in sterile physiological saline solution Cryptococcus neoformans ATCC90112 on a SDA flat plate that had been cultured for one night at 35° C., counting the number of cells using a biological microscope, and then diluting with sterile physiological saline solution. The mice were intravenously inoculated in their tails with 0.2 mL of the inoculum to induce infection (approximately 8×10^4 CFU/mouse).
as §1
Fluconazole was prepared using sterile physiological saline solution.
Amphotericin B was dissolved in a 5% aqueous glucose solution.
as §2, with “(0.125 mg/kg), fluconazole (5” for “(0.1”, “amphotericin B (0.25” for “voriconazole (5”, “subcutaneously” for “subcutaneously administered and flucytosine (50 mg/kg) was orally”, “days” for “days for”, “where the” for “where”, “22” for “15”

[3] = Table 5, flucytosine 50 mg/kg orally
[4] = Table 7, amphotericin B 0.25 mg/kg s.c.
[5] = Table 6, fluconazole 5 mg/kg s.c.
[6] = Table 4, voriconazole 5 mg/kg s.c.

Nc1[nH]c(=O)ncc1F [5-FC, flucytosine]
Survival rate (%) [1, 3]: 10%

C[C@@H]1[C@H](O)[C@@H](C)/C=C/C=C/C=C/C=C/C=C/C=C/C=C/[C@H](O[C@@H]2O[C@H](C)[C@@H](O)[C@H](N)[C@@H]2O)C[C@@H]2O[C@](O)(C[C@@H](O)C[C@@H](O)[C@H](O)CC[C@@H](O)C[C@@H](O)CC(=O)O[C@H]1C)C[C@H](O)[C@H]2C(=O)O [AMPH-B, amphotericin B]
Survival rate (%) [2, 4]: 20%

OC(Cn1cncn1)(Cn1cncn1)c1ccc(F)cc1F [FLCZ, fluconazole]
Survival rate (%) [2, 5]: 10%

N=C(N)c1ccc(OCCCC2CCN(CCCOc3ccc(C(=N)N)cc3)CC2)cc1 [Test Compound]
Survival rate (%) [1, 6]: 10% | Survival rate (%) [1, 3]: 10% | Survival rate (%) [2, 5]: 20% | Survival rate (%) [2, 4]: 0%

C[C@@H](c1ncncc1F)[C@](O)(Cn1cncn1)c1ccc(F)cc1F [VLCZ, voriconazole]
Survival rate (%) [1, 6]: 10%
